From patent publication US10821115B2, “Compounds that inhibit Mcl-1 protein” (priority 2017, dated 2020)
Like-named read-outs stand apart in the source and are kept apart here.

Columns and labels:
[1] = target: recombinant human Mcl-1 (residues 171-327) / Bim interaction (Homo sapiens (Human), UniProt Q07820); test: biochemical; type: binding; conditions: read-out: Mcl-1 HTRF IC50
[2] = system: human multiple myeloma cell line, OPM-2; test: Cell viability assay (OPM-2 10 FBS), CellTiter-Glo; type: cell-based
Method in brief: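 IC50 values come from 4-parameter logistic fits of luminescence signals reflecting cell viability. Treatment lasted 16 h at 37 °C in complete medium with 10% FBS, starting from 3000 cells/well.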

[3] = 0.1 nM Mcl-1(171-327), 0.05 nM biotin-Bim (51-76)
[4] = Homo sapiens, OPM-2, 16 h, read-out: OPM-2 10% FBS IC50 IP, OPM-2 cells, 10% FBS, 16 h incubation
[5] = TR-FRET, Mcl-1(171-327) / biotin-Bim (51-76)
[6] = Homo sapiens, OPM-2, 16 h, read-out: OPM-2 10% FBS IC50 IP, OPM-2 cells, 10% FBS, 16 h, CellTiter-Glo
[7] = read-out: OPM-2 10% FBS IC50 IP, OPM-2 cells, 10% FBS, 16 h, CellTiter-Glo

Chain of recombinant human Mcl-1 (residues 171-327) / Bim interaction (Q07820 171-327): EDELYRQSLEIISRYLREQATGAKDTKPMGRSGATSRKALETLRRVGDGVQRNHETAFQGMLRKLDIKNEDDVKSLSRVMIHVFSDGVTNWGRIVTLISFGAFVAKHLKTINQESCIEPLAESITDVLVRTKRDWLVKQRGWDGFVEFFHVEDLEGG

Compound: CC(C)O[C@]1(CN2CCN3CCOC[C@@H]3C2)/C=C/C[C@H](C)[C@@H](C)S(=O)(=O)NC(=O)c2ccc3c(c2)N(C[C@@H]2CC[C@H]21)C[C@@]1(CCCc2cc(Cl)ccc21)CO3 [Example 47, (1S,3′R,6′R,7′R,8′E,11′S,12′R)-6-chloro-7′-((9aS)-hexahydropyrazino[2,1-c][1,4]oxazin-8(1H)-ylmethyl)-11′,12′-dimethyl-7′-(1-methylethoxy)-3,4-dihydro-2H,15′H-spiro[naphthalene-1,22′-[20]oxa[13]thia[1,14]diazatetracyclo [14.7.2.0~3,6~.0~19,24~]pentacosa[8,16,18,24]tetraen]-15′-one 13′,13′-dioxide]
- IC50 [1, 3]: 0.131 nM
- IC50 [2, 4]: 285 nM

Compound: CO[C@@]1(CN2CCN3C[C@H](C)OC[C@@H]3C2)/C=C/C[C@H](C)[C@@H](C)S(=O)(=O)NC(=O)c2ccc3c(c2)N(C[C@@H]2CC[C@H]21)C[C@@]1(CCCc2cc(Cl)ccc21)CO3 [Example 145, (1S,3′R,6′R,7′S,8′E,11′S,12′R)-6-chloro-7′-methoxy-11′,12′-dimethyl-7′-(((3S,9aS)-3-methylhexahydropyrazino[2,1-c][1,4]oxazin-8(1H)-yl)methyl)-3,4-dihydro-2H,15′H-spiro[naphthalene-1,22′-[20]oxa[13]thia[1,14]diazatetracyclo [14.7.2.0~3,6~.0~19,24~]pentacosa[8,16,18,24]tetraen]-15′-one 13′,13′-dioxide]
- IC50 [1, 3]: 0.124 nM
- IC50 [2, 4]: 113 nM

Compound: CO[C@@]1(CN2CCN(c3ccc(B(O)O)c(C(C)=O)c3)CC2)/C=C/C[C@H](C)[C@@H](C)S(=O)(=O)NC(=O)c2ccc3c(c2)N(C[C@@H]2CC[C@H]21)C[C@@]1(CCCc2cc(Cl)ccc21)CO3 [Example 296, (2-acetyl-4-(4-(((1S,3′R,6′R,7′S,8′E,11′S, 12′R)-6-chloro-7′-methoxy-11′,12′-dimethyl-13′,13′-dioxido-15′-oxo-3,4-dihydro-2H-spiro[naphthalene-1,22′-[20]oxa[13]thia[1,14]diazatetracyclo [14.7.2.0~3,6~.0~19,24~]pentacosa[8,16,18,24]tetraen]-7′-yl)methyl)-1-piperazinyl)phenyl)boronic acid]
- IC50 [1, 3]: 0.211 nM
- IC50 [2, 4]: 1310 nM

Compound: CO[C@@]1(CN2CCN(c3cncnc3)CC2)/C=C/C[C@H](C)[C@@H](C)S(=O)(=O)NC(=O)c2ccc3c(c2)N(C[C@@H]2CC[C@H]21)C[C@@]1(CCCc2cc(Cl)ccc21)CO3 [Example 305, (1S,3′R,6′R,7′S,8′E,11′S,12′R)-6-chloro-7′-methoxy-11′,12′-dimethyl-7′-((4-(5-pyrimidinyl)-1-piperazinyl)methyl)-3,4-dihydro-2H,15′H-spiro[naphthalene-1,22′-[20]oxa[13]thia[1,14]diazatetracyclo [14.7.2.0~3,6~.0~19,24~]pentacosa[8,16,18,24]tetraen]-15′-one 13′,13′-dioxide]
- IC50 [1, 3]: 0.33 nM
- IC50 [2, 4]: 327 nM

Compound: COCC[C@@H]1[C@@H](C)C/C=C/[C@@](O)(C2SCCCS2)[C@@H]2CC[C@H]2CN2C[C@@]3(CCCc4cc(Cl)ccc43)COc3ccc(cc32)C(=O)NS1(=O)=O [Example 100513, (1S,3′R,6′R,7′S,8′E,11′S,12′R)-6-chloro-7′-(1,3-dithian-2-yl)-7′-hydroxy-12′-(2-methoxyethyl)-11′-methyl-3,4-dihydro-2H,15′H-spiro[naphthalene-1,22′-[20]oxa[13]thia[1,14]diazatetracyclo [14.7.2.0~3,6~.0~19,24~]pentacosa[8,16,18,24]tetraen]-15′-one 13′,13′-dioxide]
- IC50 [1, 5]: 0.071 nM
- IC50 [2, 6]: 288 nM

Compound: C[C@@H]1[C@@H](C)CCC[C@@](O)(C2CCN(C)CC2)[C@@H]2CC[C@H]2CN2C[C@@]3(CCCc4cc(Cl)ccc43)COc3ccc(cc32)C(=O)NS1(=O)=O [Example 100386, (1S,3′R,6′R,7′R,11′S,12′R)-6-chloro-7′-hydroxy-11′,12′-dimethyl-7′-(1-methyl-4-piperidinyl)-3,4-dihydro-2H,15′H-spiro[naphthalene-1,22′-[20]oxa[13]thia[1,14]diazatetracyclo [14.7.2.0~3,6~.0~19,24~]pentacosa[16,18,24]trien]-15′-one 13′,13′-dioxide]
- IC50 [1, 5]: 4.02 nM
- IC50 [2, 7]: 7270 nM

Compound: CON(C)C[C@]1(OC)/C=C/C[C@H](C)[C@@H](C)S(=O)(=O)NC(=O)c2ccc3c(c2)N(C[C@@H]2CC[C@H]21)C[C@@]1(CCCc2cc(Cl)ccc21)CO3 [Example 212, (1S,3′R,6′R,7′S,8′E,11′S,12′R)-6-chloro-7′-methoxy-7′-((methoxy(methyl)amino)methyl)-11′,12′-dimethyl-3,4-dihydro-2H,15′H-spiro[naphthalene-1,22′-[20]oxa[13]thia[1,14]diazatetracyclo [14.7.2.0~3,6~.0~19,24~]pentacosa[8,16,18,24]tetraen]-15′-one 13′,13′-dioxide]
- IC50 [1, 3]: 0.122 nM
- IC50 [2, 4]: 307 nM

Compound: C[C@@H]1[C@@H](C)C/C=C/[C@](C)(OCC2CCOCC2)[C@@H]2CC[C@H]2CN2C[C@@]3(CCCc4cc(Cl)ccc43)COc3ccc(cc32)C(=O)NS1(=O)=O [Example 100477, (1S,3′R,6′R,7′S,8′E,11′S,12′R)-6-chloro-7′,11′,12′-trimethyl-7′-(tetrahydro-2H-pyran-4-ylmethoxy)-3,4-dihydro-2H,15′H-spiro[naphthalene-1,22′-[20]oxa[13]thia[1,14]diazatetracyclo [14.7.2.0~3,6~.0~19,24~]pentacosa[8,16,18,24]tetraen]-15′-one 13′,13′-dioxide]
- IC50 [1, 5]: 0.313 nM
- IC50 [2, 6]: 159 nM

Compound: CC[C@]1(O)CCC[C@H](C)[C@@H](C)S(=O)(=O)NC(=O)c2ccc3c(c2)N(C[C@@H]2CC[C@H]21)C[C@@]1(CCCc2cc(Cl)ccc21)CO3 [Example 100076, (1S,3′R,6′R,7′S,11′S,12′R)-6-chloro-7′-ethyl-7′-hydroxy-11′,12′-dimethyl-3,4-dihydro-2H,15′H-spiro[naphthalene-1,22′-[20]oxa[13]thia[1,14]diazatetracyclo [14.7.2.0~3,6~.0~19,24~]pentacosa[16,18,24]trien]-15′-one 13′,13′-dioxide]
- IC50 [1, 5]: 9.66 nM
- IC50 [2, 6]: 2670 nM

Compound: COCC[C@@H]1[C@@H](C)C/C=C/[C@](CN2CCN(C(COC)COC)CC2)(OC)[C@@H]2CC[C@H]2CN2C[C@@]3(CCCc4cc(Cl)ccc43)COc3ccc(nc32)C(=O)NS1(=O)=O [Example 25, (1S,3′R,6′R,7′S,8′E,11′S,12′R)-6-chloro-7′-methoxy-12′-(2-methoxyethyl)-7′-((4-(2-methoxy-1-(methoxymethyl)ethyl)-1-piperazinyl)methyl)-11′-methyl-3,4-dihydro-2H,15′H-spiro[naphthalene-1,22′-[20]oxa[13]thia[1,14,25]triazatetracyclo [14.7.2.0~3,6~.0~19,24~]pentacosa[8,16,18,24]tetraen]-15′-one 13′,13′-dioxide]
- IC50 [1, 3]: 0.113 nM
- IC50 [2, 4]: 41 nM

Compound: CC#C[C@]1(O)CCC[C@H](C)[C@@H](C)S(=O)(=O)NC(=O)c2ccc3c(c2)N(C[C@@H]2CC[C@H]21)C[C@@]1(CCCc2cc(Cl)ccc21)CO3 [Example 100268, (1S,3′R,6′R,7′S,11′S,12′R)-6-chloro-7′-hydroxy-11′,12′-dimethyl-7′-(1-propyn-1-yl)-3,4-dihydro-2H,15′H-spiro[naphthalene-1,22′-[20]oxa[13]thia[1,14]diazatetracyclo [14.7.2.0~3,6~.0~19,24~]pentacosa[16,18,24]trien]-15′-one 13′,13′-dioxide]
- IC50 [1]: 3.44 nM
- IC50 [2, 7]: 3810 nM

Compound: C[C@@H]1[C@@H](C)C/C=C/[C@@](O)(C#CCN2CCOCC2)[C@@H]2CC[C@H]2CN2C[C@@]3(CCCc4cc(Cl)ccc43)COc3ccc(cc32)C(=O)NS1(=O)=O (single isomer, unassigned) [Example 100018]
- IC50 [1, 5]: 0.061 nM
- IC50 [2, 7]: 49 nM

Compound: C[C@@H]1[C@@H](C)CCC[C@@]2(C[C@H]2C(=O)N2CCN3CCOC[C@H]3C2)[C@@H]2CC[C@H]2CN2C[C@@]3(CCCc4cc(Cl)ccc43)COc3ccc(cc32)C(=O)NS1(=O)=O [Example 100304, (1R,2R,3′R,6′R,11′S,12′R,22′S)-6″-chloro-2-((9aR)-hexahydropyrazino[2,1-c][1,4]oxazin-8(1H)-ylcarbonyl)-11′,12′-dimethyl-3″,4″-dihydro-2″H,15′H-dispiro[cyclopropane-1,7′-[20]oxa[13]thia[1,14]diazatetracyclo [14.7.2.0~3,6~.0~19,24~]pentacosa[16,18,24]triene-22′,1″-naphthalen]-15′-one 13′,13′-dioxide]
- IC50 [1, 5]: 0.311 nM
- IC50 [2, 7]: 464 nM

Compound: CO[C@]1(CN2CCN3C(=O)[C@H](C)OC[C@@H]3C2)/C=C/C[C@H](C)[C@@H](C)S(=O)(=O)NC(=O)c2ccc3c(c2)N(C[C@@H]2CC[C@H]21)C[C@@]1(CCCc2cc(Cl)ccc21)CO3 [Example 142, (1S,3′R,6′R,7′R,8′E,11′S,12′R)-6-chloro-7′-methoxy-11′,12′-dimethyl-7′-(((3S,9aS)-3-methyl-4-oxohexahydropyrazino[2,1-c][1,4]oxazin-8(1H)-yl)methyl)-3,4-dihydro-2H,15′H-spiro[naphthalene-1,22′-[20]oxa[13]thia[1,14]diazatetracyclo [14.7.2.0~3,6~.0~19,24~]pentacosa[8,16,18,24]tetraen]-15′-one 13′,13′-dioxide]
- IC50 [1, 3]: 0.157 nM
- IC50 [2, 4]: 174 nM
